Assay results reported in PMC11876671, “Investigating blood–brain barrier penetration and neurotoxicity of natural products for central nervous system drug development” (Scientific Reports, 2025).
Structures can show the parent of a compound that is named as a salt. Where a SMILES comes first, the peptide text is derived from it. [ ]: non-standard residue; d: D form. The star is where a group is joined. X2 = CCC(C)(C)NCCN(CCNC(C)(C)/C(C)=N/O)CCN*; Tyr(3-I) = N[C@@H](Cc1ccc(O)c(I)c1)C(=O)O

Experiment: in vitro
Conditions: PAMPA, PAMPA-BBB Pe(10^-6 cm/sec), Table S3: compounds exhibiting low PAMPA-BBB permeability

`O=C(OC[C@H]1O[C@@H](OC(=O)c2cc(O)c(O)c(O)c2)[C@H](OC(=O)c2cc(O)c(O)c(O)c2)[C@@H](OC(=O)c2cc(O)c(O)c(O)c2)[C@@H]1O)c1cc(O)c(O)c(O)c1` [1,2,3,6-TETRA-O-GALLOYL-.BETA.-D-GLUCOSE] and `CO[C@H]1/C=C/O[C@@]2(C)Oc3c(C)c(O)c4c(O)c(cc(O)c4c3C2=O)NC(=O)/C(C)=C\C=C\[C@H](C)[C@H](O)[C@@H](C)[C@@H](O)[C@@H](C)[C@H](OC(C)=O)[C@@H]1C` [RIFAMYCIN] cannot be ordered by Papp: under 1 ×10⁻⁶ cm/s for the first, under 1 ×10⁻⁶ cm/s for the second.

`CC/C=C\C/C=C\C/C=C\C/C=C\C/C=C\CCCC(=O)OCC` [ICOSAPENT ETHYL] and `O=C(O)CCCc1c[nH]c2ccccc12` [IND[…]] cannot be ordered by Papp: under 1 ×10⁻⁶ cm/s for the first, under 1 ×10⁻⁶ cm/s for the second.

`COC1=C2C[C@@H](C)C[C@H](OC)[C@H](O)[C@@H](C)/C=C(\C)[C@H](OC(N)=O)[C@@H](OC)/C=C\C=C(/C)C(=O)NC(=CC1=O)C2=O` [GELDANAMYCIN] and `COc1ccc([C@@H]2CC(=O)c3c(O)cc(O[C@@H]4O[C@H](CO)[C@@H](O)[C@H](O)[C@H]4O[C@@H]4O[C@@H](C)[C@H](O)[C@@H](O)[C@H]4O)cc3O2)cc1` [PONCIRIN] cannot be ordered by Papp: under 1 ×10⁻⁶ cm/s for the first, under 1 ×10⁻⁶ cm/s for the second.

`CNc1ccc(C(=O)CC(O)CCC(C)C2OC(=O)CC(O)CC(=O)CC(O)CC(O)CC(O)CC(O)CC3(O)CC(O)C(C(=O)OC)C(CC(O[C@@H]4O[C@H](C)[C@@H](O)[C@H](N)[C@@H]4O)/C=C/C=C/C=C/C=C/C=C/C=C/C=C/C2C)O3)cc1` (stereo partly shown) [M[…]] and `COc1c(O)cc2c(c1O)[C@@H]1O[C@H](CO)[C@@H](O)[C@H](O)[C@H]1OC2=O` [BERGENIN] cannot be ordered by Papp: under 1 ×10⁻⁶ cm/s for the first, under 1 ×10⁻⁶ cm/s for the second.

Going from `CN1C(=O)CC[C@H]1c1cccnc1` [COTININE] to `Clc1ccc([C@@H]2C[C@H]3CC[C@@H]2N3)cn1` [Epibatidine dihydrochloride], the Papp rises from under 1 ×10⁻⁶ cm/s to 5.9 ×10⁻⁶ cm/s.

First: COC1=C(OC)C(=O)c2ccccc2C1=O [2,3-DIMETHOXYNAPHTHOQUINONE]
Second: CC1(C)CCC2=C(O1)c1ccccc1C(=O)C2=O [.BETA.-LAPACHONE]
The Papp of the first is higher: 4.7 ×10⁻⁶ cm/s for the first, under 1 ×10⁻⁶ cm/s for the second.

`O=[N+]([O-])c1ncc[nH]1` [AZOMYCIN] and `O=C(O)/C=C/c1ccc(O)c(O)c1` [CAFFEIC ACID] cannot be ordered by Papp: under 1 ×10⁻⁶ cm/s for the first, under 1 ×10⁻⁶ cm/s for the second.

`Oc1ccc2c(c1)OC[C@]1(O)Cc3cc(O)c(O)cc3[C@H]21` [BRAZILIN] and `O=c1cc(-c2ccc(O)c(O)c2)oc2cc(O)cc(O)c12` [LUTEOLIN] are within 1.5-fold of each other in Papp: 1.9 ×10⁻⁶ cm/s for the first, 2.2 ×10⁻⁶ cm/s for the second.

First: COc1ccc2c(c1OC)CN1CCc3cc4c(cc3[C@@H]1C2)OCO4 [CANADINE]
Second: CC(=O)O[C@@]12C[C@@H](C)[C@@]3(O)[C@@H](C=C(CO)C[C@]4(O)C(=O)C(C)=C[C@@H]34)[C@@H]1C2(C)C [PROSTRATIN]
The Papp of the first is higher: 5.5 ×10⁻⁶ cm/s for the first, under 1 ×10⁻⁶ cm/s for the second.

Same assay, conditions: PAMPA, PAMPA-BBB Pe, Table S2: compounds exhibiting moderate to high PAMPA-BBB permeability

`COc1ccc(C(C)=O)c(O)c1` [PAEONOL] and `COc1cc(O)c(C(C)=O)c(OC)c1` [XANTHOXYLINE] are within 1.5-fold of each other in Papp: 146 ×10⁻⁶ cm/s for the first, 149 ×10⁻⁶ cm/s for the second.

First: CCC(C)(C)NCCN(CCNC(=O)CNC(=O)[C@H](CCCCN)NC(=O)[C@H](CC(C)C)NC(=O)[C@H](CC(C)C)NC(=O)[C@@H](NC(=O)[C@H](Cc1ccc(O)c(I)c1)NC(=O)[C@@H]1CCCN1C(=O)[C@H](CO)NC(=O)[C@@H](NC(=O)[C@H](CCC(N)=O)NC(=O)[C@H](CCC(=O)O)NC(=O)[C@H](CCC(N)=O)NC(=O)[C@H](CC(N)=O)NC(C)=O)C(C)C)[C@@H](C)O)CCNC(C)(C)/C(C)=N/O (Ac-NQEQVSP[Tyr(3-I)]TLLKG-X2)
Second: N[C@@H](Cc1cc(I)c(Oc2cc(I)c(O)c(I)c2)c(I)c1)C(=O)O [LEVOTHYROXINE]
The Papp of the first is 1.9-fold higher: 155 ×10⁻⁶ cm/s for the first, 83 ×10⁻⁶ cm/s for the second.

Compared with `COc1ccc(-c2cc(=O)c3c(OC)c(OC)c(OC)cc3o2)cc1OC` [SINENSETIN], `COc1cc(-c2cc(=O)c3c(O)cc(O)cc3o2)ccc1O` [CHRYSERIOL] is 5-fold higher in Papp: 36 ×10⁻⁶ cm/s for the first, 179 ×10⁻⁶ cm/s for the second.

Compared with `CC(=O)c1ccc[nH]1` [METHYL PYRROL-2-YL KETONE], `C=C(C)c1cc2cc(C(C)=O)c(O)cc2o1` [EUPARIN] is 4.5-fold higher in Papp: 28 ×10⁻⁶ cm/s for the first, 125 ×10⁻⁶ cm/s for the second.

First: O=c1c2ccccc2nc2n1CCc1c-2[nH]c2ccccc12 [RUTECARPINE]
Second: O=c1ccc2ccccc2o1 [COUMARIN]
The Papp of the first is 2-fold higher: 151 ×10⁻⁶ cm/s for the first, 74 ×10⁻⁶ cm/s for the second.

Compared with `CC[C@H]1CN2CC[C@H]1C[C@@H]2[C@@H](O)c1ccnc2ccc(OC)cc12` [HYDROQUINIDINE HYDROCHLORIDE], `COc1ccc2c(c1O)-c1c(OC)c(OC)cc3c1[C@H](C2)N(C)CC3` [ISOCORYDINE] is 2-fold higher in Papp: 37 ×10⁻⁶ cm/s for the first, 74 ×10⁻⁶ cm/s for the second.

`CN1CC(CO)=C[C@H]2c3cccc4[nH]cc(c34)C[C@H]21` [ELYMOCLAVINE] and `CCCOc1ccc2[nH]cc(C3=CCNCC3)c2n1` are within 1.5-fold of each other in Papp: 17 ×10⁻⁶ cm/s for the first, 18 ×10⁻⁶ cm/s for the second.

First: C[C@]12CCC(=O)C=C1[C@@H]1C[C@@H]1[C@H]1[C@@H]3[C@@H]4C[C@@H]4[C@@]4(CCC(=O)O4)[C@@]3(C)CC[C@@H]12 [DROSPIRENONE]
Second: C[C@]12CCC(=O)C=C1CC[C@@H]1[C@@H]2C(=O)C[C@]2(C)C(=O)CC[C@@H]12 [ADRENOSTERONE]
The Papp of the first is 4.1-fold higher: 169 ×10⁻⁶ cm/s for the first, 41 ×10⁻⁶ cm/s for the second.

Compared with `CC(C)=CCCC(C)=CC(=O)O` [NEROLIC ACID], `COc1ccc(/C=C/c2cc(O)cc(O)c2)cc1O` [RHAPONTIN GENIN] is 4.1-fold higher in Papp: 17 ×10⁻⁶ cm/s for the first, 70 ×10⁻⁶ cm/s for the second.

Molecule `c1ccc2cnccc2c1` [ISOQUINOLINE] has a Papp of 157 ×10⁻⁶ cm/s.
